Laboratory results: patent US11213020B2, “Atopic dermatitis model non-human animal and use thereof” (KYUSHU UNIVERSITY, NATIONAL UNIVERSITY CORPORATION, priority 2016, dated 2022)

What was measured:
IL-31 gene = IL-31 gene expression in CD4+ T cells from patients with atopic dermatitis following TCR stimulation (real-time PCR); type: cell-based, human; settings: anti-CD3ε stimulation 6 hours, inhibitor at 30 μM, FIG. 45 (a), (c)
Source text: (§1) Human peripheral blood samples were collected from atopic dermatitis patients and healthy volunteers in compliance with Institutional Review Board protocols of the facility. Human peripheral blood mononuclear cells (PBMC) were separated by Percoll (GE Healthcare) gradient centrifugation. The CD4^+ T cells were isolated from PBMCs by magnetic sorting by using Dynabeads human CD4 followed by treatment with DETACHaBEAD human CD4 (Life Technologies).
(§2) After being suspended in complete RPMI 1640 medium, CD4^+ T cells (3×10^5 cells/well) were stimulated in a 24-well plate coated with anti-human CD3ε antibody (model “Hit3a”, Tonbo Biosciences) for 6 hours. In some experiments, the CD4^+ T cells were treated with EPAS1 inhibitors, FM19G11 or HIFVII at 30 μM (both from Calbiochem).
(§3) Total RNA was extracted using ISOGEN (trade name, Nippon Gene). After treatment with RNase-free DNase I (Life Technologies), RNA samples were reverse-transcribed with oligo (dT) primers (Life Technologies) and SuperScript III reverse transcriptase (Life Technologies) for amplification by PCR.
(§4) Real-time PCR was performed using ABI PRISM 7,000 Sequence Detection System (trade name, Applied Biosystems) and SYBR Green PCR Master Mix (Applied Biosystems).
(§5) The expression levels of human and mouse target genes were normalized based on expression levels of GAPDH and HPRT. […]

EPAS1 protein = experiment: Western blotting of EPAS1 expression in CD4+ T cells treated with EPAS1 inhibitor; type: cell-based; settings: human CD4+ T cells (patients with atopic dermatitis and healthy controls), inhibitor at 30 μM, FIG. 44
Source text: as §1, §2
Cells were lysed in 20 mM Tris-HCl buffer (pH 7.5) containing 1% Triton X-100, 150 mM NaCl, 1 mM EDTA, 1 mM EGTA, 2.5 mM sodium pyrophosphate, 1 mM β-glycerophosphate, 1 mM Na3VO4, and complete protease inhibitors (Roche).
After centrifugation, the supernatants were mixed with an equal volume of 2× sample buffer (125 mM Tris-HCl, 0.01% bromophenacyl bromide, 4% SDS, 20% glycerol, and […] dithiothreitol). Samples were boiled for 5 minutes and analyzed by inmmunoblotting.
The following antibodies were used. […]

IL-2 gene = IL-2 gene expression in CD4+ T cells from patients with atopic dermatitis following TCR stimulation (real-time PCR); type: cell-based, human; settings: anti-CD3ε stimulation 6 hours, inhibitor at 30 μM, FIG. 45 (b)
Source text: as §1, §2, §3, §4, §5

Cc1ccc(C(=O)COC(=O)c2cccc(NC(=O)c3ccc([N+](=O)[O-])cc3[N+](=O)[O-])c2)cc1 [FM19G11, 3-[(2,4-dinitrobenzoyl)amino]-benzoic acid 2-(4-methylphenyl)-2-oxoethyl ester]
expression of the IL-31 gene following TCR stimulation (IL-31 gene): markedly suppressed | expression level of EPAS1 protein (EPAS1 protein): markedly decreased | expression levels of the IL-2 gene following TCR stimulation (IL-2 gene): comparable
